The text below walks through data of patent US7208162B2, “Combination therapy of respiratory diseases using antibodies and anti-inflammatory agents” (priority 2000, dated 2007).

The conditions of series [1]: cited from earlier work.
Series [2] deals with RSV. To be noted: aerosol inhalation; versus untreated patients; cited from earlier work.
Series [3] deals with respiratory syncytial virus (RSV/Long). Description: Example 1: antibody/triamcinolone therapy of RSV-infected cotton rats (virus titer, pulmonary pathology). It is filed as in vivo. To be noted: treatment i.m. beginning 3 days post-infection; antibody 15 mg/kg, triamcinolone 1-16 mg/kg; lungs days 4 and 6. Here is the method:
The following procedure was performed using inbred cotton rats (Sigmodon hispidus). On day 0, young adult cotton rats were divided into 9 groups of 12 animals each (total: 108 animals). Identification of each group in terms of treatment was as follows:
In each case (Groups B–I), approximately 10^6.5 plaque forming units (pfu) of respiratory syncytial virus (RSV/Long) was administered intranasally in a volume of 100 μl.
On day 3, treatment began as described above for each of the groups. The animals were each weighed and treated according to the indicated regimen. All antibody and steroid administration was intramuscular (i.e., systemic) and both antibody and steroid were administered together. Antibody was palivizumab wherein 15 mg/kg was the dose used in each case. All dosages are given as mg per kg of body weight.
On day 4, six animals from each group were sacrificed, their lungs bisected, with half being homogenized for viral quantitation and the other half being inflated with formalin for histological examination. The remaining six animals in each of groups D through I were treated with the dose of triamcinolone indicated above but no additional antibody was given.
On day 5, the remaining six animals in each group were treated again as described for day 4 (again with no additional antibody).
On day 6, the remaining 6 animals from each group were sacrificed and data collected as described for day 4. Thus, their lungs were bisected, with half being homogenized for viral quantitation and the other half being inflated with formalin for histological examination.
Results of these experiments are shown graphically in FIGS. 2(a through e).
This experiment was duplicated on a separate population of 108 cotton rats divided into groups and treated as just described with similar results reported in FIG. 3 (FIG. 3(a) showing virus titer and FIG. 3(b) showing composite pathology score). The conclusions herein are the result of data from both experiments. The results for composite pathology scores are shown in FIG. 1 reflecting the results of both sets of experiments.

For series [4] the test system is unchanged. Put plainly: Example 3: different steroids with the same antibody in RSV pneumonia, arithmetic mean pathology scores. The settings on record: 8 mg/kg/day i.p. days 3-5 plus antibody 15 mg/kg day 3; day 6. It is filed as in vivo. As to the method: The following procedure was performed using inbred cotton rats (Sigmodon hispidus). On day 0, young adult cotton rats were divided into 8 groups of 4 animals each (total: 32 animals). Identification of each group in terms of treatment was as follows:
In each case (Groups B–H), approximately 10^6.5 plaque forming units (pfu) of respiratory syncytial virus (RSV/Long) was administered intranasally in a volume of 100 μl.
On day 3, treatment began as described above for each of the groups. The animals were each weighed and treated according to the indicated regimen. Antibody was palivizumab wherein 15 mg/kg was the dose used in each case. All dosages are given as mg per kg of body weight.
On day 4, animals in groups D through H were treated as described for day 3 but no additional antibody was given.
On day 5, animals in groups D through H were treated as on […] (again with no additional antibody).
On day 6, all animals were sacrificed. Lungs from all of the animals were inflated with formalin for histological examination.

Series [5] concerns Respiratory Syncytial Virus. The settings on record: systemically administered; 147 infants; cited from earlier work.
In series [6] the test system is RSV. Description: Example 5: lung pathology score (0 to 100) on day 6 after MAb and glucocorticoid therapy. It is filed as in vivo, cotton rats. Here is the method: Twenty eight (28) cotton rats (CRs) were infected intranasally with 6.5 logs of RSV (as 0.1 ml of inoculum), leading to dramatic lung pathology 6 days post-infection (PI). On day 3 PI (the peak for viral infection), 7 groups of 4 animals received one of the following: no therapy, or intramuscular (i.m.) MAb (15 mg/kg) (MAb=palivizumab) i.m. triamcinolone (TRI;Steris Laboratories, Phoenix, Ariz.) at 16 mg/kg and MAb; i.p. methylprednisolone (MED; Solu-Medrol® Pharmacia and Upjohn, Kalamazoo, Mich.) 4 mg/kg and MAb; i.p. MED at 8 mg/kg and MAb; i.p. dexamethasone (DEX; Elkins-Sinn, Cherry Hill, N.J.) 0.6 mg/kg and MAb; or i.p. DEX 1.2 mg/kg and MAb (TRI and DEX once daily, MED divided into every 6 hours). All glucocorticoids were repeated on days 4 and 5. The dose, frequency and route of administration of dexamethasone and methylprednisolone were extrapolated from human use recommendations.
On day 6, all groups (including 4 uninfected CRs were sacrificed (in general by carbon dioxide asphyxiation). For pathology, tissues were inflated and formalin fixed and coronal paraffin sections were cut at 4 μm thickness. Lung tissue slides scored on a 0 (normal) to 100 (marked pathology) severity scale, for bronchiolitis, alveolitis, and interstitial pneumonia.
Results are shown graphically in FIG. 7A and summarized as follows in terms of pathology score (0 to 100).

Where [7] appears, read: MAb 15 mg/kg i.m. day 3, TRI 16 mg/kg i.m. days 3-5.

Take `NC(=O)c1ncn([C@@H]2O[C@H](CO)[C@@H](O)[C@H]2O)n1` [ribavirin]: in series [1] (given orally), the bioavailability entry was “about 45%”. For the same compound, the “time of peak concentrations in plasma” value in series [1] (in vivo, po) is 1 to 2 h. Besides, in the series on RSV [2], the “level of secondary infection following cessation of treatment” value is reported as “significantly higher than in untreated patients”.

For the compound `C[C@]12C=CC(=O)C=C1CC[C@H]1[C@@H]3C[C@@H](O)[C@](O)(C(=O)CO)[C@@]3(C)C[C@H](O)[C@@]12F` [triamcinolone], in series [3], the pulmonary pathology entry was “positive effect on pulmonary pathology” and the “viral clearance (RSV titer in lungs)” value is “retarded viral clearance”.

Consider `C[C@H]1C[C@@H]2[C@H]([C@@H](O)C[C@@]3(C)[C@H]2CC[C@]3(O)C(=O)COC(=O)CCC(=O)[O-])[C@@]2(C)C=CC(=O)C=C12.[Na+]` [solumedrol], for which the “pulmonary pathology (arithmetic mean pathology scores) compared with triamcinolone” value in series [4] is given as “worked almost as well as triamcinolone”.

As for `C[C@]12C=CC(=O)C=C1CC[C@@H]1[C@@H]2[C@@H](O)C[C@@]2(C)[C@H]1CC[C@]2(O)C(=O)CO` [prednisolone], the “effectiveness in infant RSV” value in series [5] is “ineffectiveness”.

Take “palivizumab: anti-RSV IgG monoclonal antibody, commercially palivizumab, sequence described as Medi-493 (U.S. Pat. No. 5,824,307 FIGS. 7 and 8)”: in series [3], the pulmonary pathology result is “no significant effect on pulmonary pathology” and the “viral clearance (RSV titer in lungs)” value is “accelerated viral clearance”. For the same compound, the “pathology (summary of Table 1)” value with RSV [6] was “did not reduce pathology”. In the series on RSV [6] (setting [7]), the “Alveolitis pathology score (0 to 100)” value amounted to 38, the “Bronchiolitis pathology score (0 to 100)” value was determined as 75 and the “Interstitial Pneumonia pathology score (0 to 100)” value came to 49. In addition, the “lung tissue histology (inflammatory infiltrates)” value in the series with RSV [6] (palivizumab day 3, methylprednisolone days 3, 4 and 5, hematoxylin and eosin, 64X) is recorded as “Little or no improvement”.
